Legend:
[1] = CellTiter-Glo (CTG) cytotoxicity in MT4-GFP cells; conditions: human
[2] = system: panel of unrelated viruses; conditions: all other viruses of the panel, up to highest concentration tested, 50 µM
human DNA polymerase α = target: T1, human DNA polymerase α (Homo sapiens, UniProt P09884); test: Human DNA polymerase α inhibition assay; format: biochemical; conditions: top concentration 200 µM
T1 sequence (P09884 1-1462): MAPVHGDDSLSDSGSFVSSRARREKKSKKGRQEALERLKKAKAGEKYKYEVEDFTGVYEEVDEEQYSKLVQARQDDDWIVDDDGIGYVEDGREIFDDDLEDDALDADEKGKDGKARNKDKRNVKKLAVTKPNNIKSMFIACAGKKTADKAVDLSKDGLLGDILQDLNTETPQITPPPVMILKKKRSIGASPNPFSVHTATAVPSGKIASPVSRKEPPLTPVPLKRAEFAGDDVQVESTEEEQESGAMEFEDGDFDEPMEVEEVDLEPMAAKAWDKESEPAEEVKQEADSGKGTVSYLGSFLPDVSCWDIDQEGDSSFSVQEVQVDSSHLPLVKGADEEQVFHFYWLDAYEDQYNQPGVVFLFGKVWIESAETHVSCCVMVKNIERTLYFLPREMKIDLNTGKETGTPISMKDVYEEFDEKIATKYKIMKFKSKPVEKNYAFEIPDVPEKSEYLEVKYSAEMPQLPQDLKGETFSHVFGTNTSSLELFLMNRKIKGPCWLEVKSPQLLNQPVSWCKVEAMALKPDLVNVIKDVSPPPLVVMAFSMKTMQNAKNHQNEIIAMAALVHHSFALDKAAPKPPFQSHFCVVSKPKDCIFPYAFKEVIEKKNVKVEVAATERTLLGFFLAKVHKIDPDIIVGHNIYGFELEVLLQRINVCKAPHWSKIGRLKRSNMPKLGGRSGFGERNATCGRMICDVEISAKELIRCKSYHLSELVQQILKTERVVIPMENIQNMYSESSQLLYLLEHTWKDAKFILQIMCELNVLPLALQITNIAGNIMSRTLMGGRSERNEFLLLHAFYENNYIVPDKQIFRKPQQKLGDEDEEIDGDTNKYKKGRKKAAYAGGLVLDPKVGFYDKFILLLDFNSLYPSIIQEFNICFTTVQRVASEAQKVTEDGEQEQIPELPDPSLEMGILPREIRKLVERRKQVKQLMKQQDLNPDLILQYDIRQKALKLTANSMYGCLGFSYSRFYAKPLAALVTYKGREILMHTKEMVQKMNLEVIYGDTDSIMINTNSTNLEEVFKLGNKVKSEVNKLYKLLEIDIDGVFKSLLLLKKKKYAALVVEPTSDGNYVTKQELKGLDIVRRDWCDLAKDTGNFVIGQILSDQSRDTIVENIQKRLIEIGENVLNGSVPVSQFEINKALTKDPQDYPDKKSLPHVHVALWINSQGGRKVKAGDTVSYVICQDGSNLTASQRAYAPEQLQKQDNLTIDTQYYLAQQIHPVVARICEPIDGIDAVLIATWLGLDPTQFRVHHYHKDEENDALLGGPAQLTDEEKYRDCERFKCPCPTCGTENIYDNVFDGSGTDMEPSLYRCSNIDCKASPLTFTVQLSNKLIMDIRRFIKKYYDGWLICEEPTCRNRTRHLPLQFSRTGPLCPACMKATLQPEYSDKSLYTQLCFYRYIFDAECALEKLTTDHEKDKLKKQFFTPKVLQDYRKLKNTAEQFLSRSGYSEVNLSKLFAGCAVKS
Experimental: The activities of human DNA polymerases α, β, and γ were measured in radiolabeled nucleotide incorporation assays. TP was prepared as a 10-point titration with 3-fold serial dilution in water. Reaction buffers for the DNA polymerase α and β assays both contained 20 mM Tris pH 7.5, 10 mM MgCl2, 50 μM EDTA, 200 μg/mL bovine serum albumin (BSA), 2 mM dithiothreitol (DTT), 1.6 μM each of dNTP (dATP, dCTP, dGTP, and dTTP), 20 μCi/mL [α33P]dATP, 0.1 mg/mL gapped activated fish sperm DNA template, test compound, and 0.005 U/μL DNA polymerase α or 0.0025 U/μL DNA polymerase β. The reaction buffer for DNA polymerase γ contained 20 mM Tris pH 8, 10 mM MgCl2, 50 mM KCl, 100 μg/mL BSA, 2 mM β-mercaptoethanol, 10 μM of each dNTP (dATP, dCTP, dGTP, and dTTP), 20 μCi/mL [α33P]dATP, 0.04 mg/mL gapped activated fish sperm DNA template, test compound, and 0.0003 μg/μL DNA polymerase γ. The 50-μL reactions were incubated at room temperature for 30 min (for β and γ) or 90 min (for α) before terminating with the addition of 50 μL 500 mM EDTA. The reaction mixtures were transferred to a Millipore DE81 filter plate (EMD Millipore; Hayward, CA), washed with 0.5 M sodium phosphate pH 7.0, and dried. After addition of 40 μL scintillant to each well, the incorporation of labeled dATP was determined with a microplate counter (TopCount NXT HTS; PerkinElmer, Shelton, CA, USA).

Structure (SMILES) | CC50 [1] [µM] | Antiviral activity or cytotoxicity [2] | IC50 (human DNA polymerase α) [µM]
C#C[C@]1(CO)O[C@@H](n2ccc3c(N)nc(Cl)nc32)C[C@@H]1O [Compound 12, (2R,3S,5R)-5-(4-amino-2-chloro-7H-pyrrolo[2,3-d]pyrimidin-7-yl)-2-ethynyl-2-(hydroxymethyl)tetrahydrofuran-3-ol] | > 42 | did not display antiviral activity or cytotoxicity | –
C#C[C@]1(COP(=O)(O)OP(=O)(O)OP(=O)(O)O)O[C@@H](n2ccc3c(N)nc(Cl)nc32)C[C@@H]1O [MK-8527-TP] | – | – | 95

From article PMC12380353, “MK-8527 is a novel inhibitor of HIV-1 reverse transcriptase translocation with potential for extended-duration dosing” (PLOS Biology, 2025)
